Experimental data published in patent US6982353B2, “C2-disubstituted indan-1-ol compounds, their derivatives, processes for their preparation, and their use as pharmaceuticals” (Aventis Pharma Deutschland GmbH, priority 2001, dated 2006).

Experiments:
female NMRI mice = test: Anorectic action: cumulative evaporated milk consumption after 24 h removal of feed; assay type: in vivo; conditions: dose 20 mg/kg (ip or po, route not specified)
Method: The anorectic action was tested on female NMRI mice. After removal of feed for 24 hours, the preparation to be tested was administered intraperitoneally (ip) or by gavage (po). The animals were housed singly and, with free access to drinking water, they were offered evaporated milk 30 minutes after administration of the preparation. The consumption of evaporated milk was determined and the general behavior of the animals was monitored every half an hour for 7 hours. The measured milk consumption was compared to that of vehicle-treated control animals.

SMILES: CS(=O)(=O)C1(F)Cc2cc(Cl)ccc2C1O (stereo not drawn) [Example 1, 5-Chloro-2-fluoro-2-methanesulfonylindan-1-ol]
- melting point: 101 °C
- Reduction in cumulative milk consumption as % of the control (female NMRI mice; compared with untreated control animals): 46%
- cumulative milk consumption by treated animals (female NMRI mice; feed removed 24 h, milk offered 30 min after administration, monitored for 7 hours): 5/2.06 ml
